The source of these data is ChEMBL document CHEMBL1201862, “PubChem BioAssay data set” (2004).

Calls of active or inactive are those of the source.

Targets include Cytochrome P450 3A4 (Homo sapiens, UniProt P08684); Cytochrome P450 2D6 (Homo sapiens, UniProt P10635); Cytochrome P450 2C9 (Homo sapiens, UniProt P11712).
Experiment [1] addresses Luciferin 4-monooxygenase (Photinus pyralis, UniProt P08659). Kind of experiment: inhibition of purified Photinus pyralis luciferase – biochemical, luminescence, dose response (AID 1891).
A short description of experiment [2]: Luminescence Cell-Based Dose Confirmation HTS to Identify Inhibitors of Platelet Dense Granule Release. [Related pubchem assays: 1663 (Primary HTS), 1678 (Summary of Project)]. The class given is functional.
Experiment [3] concerns the target FAD-linked sulfhydryl oxidase ALR (Homo sapiens, UniProt P55789). Kind of experiment: ALR-catalysed DTT oxidation blockers – biochemical, H2O2 detection, luminescence, cherry-pick, dose response (AID 493248).
Experiment [4] has as its target Voltage-dependent T-type calcium channel subunit alpha-1H (Homo sapiens, UniProt O95180). The class given is functional.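 Also: channel activity triggered by adding a high calcium stimulation buffer.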
Experiment [5] deals with T1, Polyadenylate-binding protein 1 (Homo sapiens, UniProt P11940). The experiment in a line: MLLE domain peptide-binding blockers, IC50 – biochemical, fluorescence polarization, FITC-PAM2 peptide, dose response (AID 602259). To be noted: read-out: IC50_Mean. The class given is functional.
Experiment [6] concerns the target T1, Polyadenylate-binding protein 1. The experiment in a line: MLLE binding blockers, Cy5 peptide tracer – biochemical, fluorescence polarization, Cy5-PAM2 peptide, secondary, miRNA deadenylation inhibitor project, dose response (AID 602260). Format: functional. The following applies: read-out: IC50_Mean.
In experiment [7] the target is T2, Calpain-2 catalytic subunit (Sus scrofa, UniProt P43367).
T2 sequence (P43367 whole entry): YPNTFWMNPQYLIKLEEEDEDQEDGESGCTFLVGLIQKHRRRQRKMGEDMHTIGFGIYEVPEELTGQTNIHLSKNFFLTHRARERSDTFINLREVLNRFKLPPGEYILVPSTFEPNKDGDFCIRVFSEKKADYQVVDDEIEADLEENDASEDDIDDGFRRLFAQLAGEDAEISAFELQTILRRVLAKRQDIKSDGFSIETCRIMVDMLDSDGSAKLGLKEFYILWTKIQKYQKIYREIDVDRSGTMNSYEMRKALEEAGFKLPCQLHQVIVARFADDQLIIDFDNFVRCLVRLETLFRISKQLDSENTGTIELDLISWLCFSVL
The experiment in a line: m-calpain protease blockers, concentration series – biochemical, fluorogenic peptide substrate, dose response (AID 1420). The class given is functional.

A short description of another experiment: cells. The class given is functional.
Experiment [8] in a line: microbe, parasite or virus in culture. Format: functional. The following applies: Mycobacterium tuberculosis.
In another experiment the test system is Streptococcus. Kind of experiment: GAS UMAA2166 growth inhibition – luminescence, BacTiterGlo, counter-screen for streptokinase expression inhibitor project, dose response (AID 1915).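 Also: potency for reduction of bacterial viability or growth.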 The class given is functional, organism-based.
Experiment [9] concerns Streptococcus sp. 'group A'. The experiment in a line: Streptococcus pyogenes SK(-)GAS viability under kanamycin – luminescence, BacTiterGlo, confirmation, counter-screen for streptokinase expression inhibitor project, dose response (AID 1900). Format: functional, organism-based.
In a further experiment the target is T3, Streptokinase A (Streptococcus pyogenes serotype M1, UniProt P10520).
T3 sequence (P10520 whole entry): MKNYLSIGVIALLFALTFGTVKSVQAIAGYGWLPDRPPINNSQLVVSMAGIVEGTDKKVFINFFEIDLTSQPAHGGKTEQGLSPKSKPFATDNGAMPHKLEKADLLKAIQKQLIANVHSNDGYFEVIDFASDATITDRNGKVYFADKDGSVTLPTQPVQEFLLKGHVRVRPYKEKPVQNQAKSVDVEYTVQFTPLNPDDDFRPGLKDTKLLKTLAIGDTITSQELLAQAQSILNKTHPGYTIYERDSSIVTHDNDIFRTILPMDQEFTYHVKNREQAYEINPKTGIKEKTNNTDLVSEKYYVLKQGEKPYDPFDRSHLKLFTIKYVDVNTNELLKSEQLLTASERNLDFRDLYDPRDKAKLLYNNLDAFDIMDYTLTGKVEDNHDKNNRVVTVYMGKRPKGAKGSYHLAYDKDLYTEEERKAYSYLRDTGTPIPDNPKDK
The experiment in a line: viability-normalized secreted streptokinase activity reduction – plasminogen activation absorbance, OD405, dose response (AID 1914).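 Also: secreted streptokinase activity via plasminogen activation per viability signal from cell pellet.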 Format: functional, Streptococcus pyogenes M1 GAS.

The target in experiment [10] is T4, Heat shock factor protein 1 (Mus musculus, UniProt P38532).
T4 sequence (P38532 whole entry): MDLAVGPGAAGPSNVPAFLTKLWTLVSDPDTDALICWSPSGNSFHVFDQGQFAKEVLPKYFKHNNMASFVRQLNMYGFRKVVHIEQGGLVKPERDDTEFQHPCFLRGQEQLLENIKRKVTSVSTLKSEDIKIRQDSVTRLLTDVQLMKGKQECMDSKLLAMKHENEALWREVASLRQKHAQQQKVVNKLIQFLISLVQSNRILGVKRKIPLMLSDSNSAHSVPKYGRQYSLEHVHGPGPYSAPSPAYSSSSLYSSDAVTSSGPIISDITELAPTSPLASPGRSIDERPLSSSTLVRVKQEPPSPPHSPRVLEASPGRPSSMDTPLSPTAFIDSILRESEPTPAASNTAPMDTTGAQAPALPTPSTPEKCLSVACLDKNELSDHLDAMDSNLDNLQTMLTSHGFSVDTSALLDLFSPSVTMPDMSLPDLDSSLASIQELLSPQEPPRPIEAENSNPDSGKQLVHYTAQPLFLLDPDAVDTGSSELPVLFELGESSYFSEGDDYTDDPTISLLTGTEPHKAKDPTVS
Kind of experiment: decrease of HSF1-responsive luciferase luminescence – cell-based, NIH3T3, dose retest, confirmation (AID 2382).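 Also: NIH3T3 fibroblasts with HSF1-driven luciferase reporter stressed by proteasome inhibitor MG132; luminescence from HSF1-driven luciferase expression after 8 hours of MG132 stress.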 The class given is functional.

The target in experiment [11] is T5, Rac GTPase-activating protein 1 (Homo sapiens, UniProt Q9H0H5).
T5 sequence (Q9H0H5 whole entry): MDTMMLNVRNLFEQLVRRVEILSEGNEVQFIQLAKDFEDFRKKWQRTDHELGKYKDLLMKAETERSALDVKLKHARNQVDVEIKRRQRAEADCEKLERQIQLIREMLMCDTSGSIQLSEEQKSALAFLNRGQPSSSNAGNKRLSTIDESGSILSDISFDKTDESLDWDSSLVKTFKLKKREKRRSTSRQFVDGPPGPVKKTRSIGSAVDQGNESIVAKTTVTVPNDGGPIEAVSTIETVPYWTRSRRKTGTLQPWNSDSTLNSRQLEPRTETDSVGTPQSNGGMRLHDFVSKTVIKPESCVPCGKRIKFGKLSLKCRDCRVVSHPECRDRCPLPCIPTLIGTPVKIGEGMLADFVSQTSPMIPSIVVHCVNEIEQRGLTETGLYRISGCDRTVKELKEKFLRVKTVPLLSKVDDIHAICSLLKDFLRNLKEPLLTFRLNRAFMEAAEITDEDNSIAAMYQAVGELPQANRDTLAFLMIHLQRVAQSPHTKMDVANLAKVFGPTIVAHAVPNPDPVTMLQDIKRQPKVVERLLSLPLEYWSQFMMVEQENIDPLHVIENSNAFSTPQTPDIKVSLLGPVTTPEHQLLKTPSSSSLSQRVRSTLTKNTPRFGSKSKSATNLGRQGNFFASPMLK
Kind of experiment: blockers of MgcRacGAP-driven Rac1 GTP hydrolysis – biochemical, ADP Hunter fluorescence, primary and confirmatory, confirmation (AID 624330). The class given is functional.

T1 sequence (P11940 whole entry, the tested form may be a part): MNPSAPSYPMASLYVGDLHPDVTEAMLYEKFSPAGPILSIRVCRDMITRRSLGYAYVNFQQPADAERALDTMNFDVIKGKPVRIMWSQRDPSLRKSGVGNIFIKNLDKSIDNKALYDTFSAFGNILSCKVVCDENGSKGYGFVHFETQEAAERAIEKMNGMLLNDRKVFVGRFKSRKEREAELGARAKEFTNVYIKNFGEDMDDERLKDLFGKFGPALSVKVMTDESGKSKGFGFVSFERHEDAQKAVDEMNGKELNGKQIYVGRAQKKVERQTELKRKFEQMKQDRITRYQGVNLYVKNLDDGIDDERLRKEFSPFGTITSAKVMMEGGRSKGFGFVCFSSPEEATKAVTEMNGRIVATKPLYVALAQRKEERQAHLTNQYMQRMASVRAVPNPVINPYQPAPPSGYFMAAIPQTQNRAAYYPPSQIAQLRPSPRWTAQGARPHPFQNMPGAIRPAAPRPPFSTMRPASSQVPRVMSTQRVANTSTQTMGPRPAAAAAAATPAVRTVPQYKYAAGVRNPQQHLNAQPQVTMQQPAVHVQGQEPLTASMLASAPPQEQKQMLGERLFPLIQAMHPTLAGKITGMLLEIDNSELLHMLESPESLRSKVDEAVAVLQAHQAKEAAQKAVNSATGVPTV
Chain of Voltage-dependent T-type calcium channel subunit alpha-1H (O95180 whole entry, the tested form may be a part): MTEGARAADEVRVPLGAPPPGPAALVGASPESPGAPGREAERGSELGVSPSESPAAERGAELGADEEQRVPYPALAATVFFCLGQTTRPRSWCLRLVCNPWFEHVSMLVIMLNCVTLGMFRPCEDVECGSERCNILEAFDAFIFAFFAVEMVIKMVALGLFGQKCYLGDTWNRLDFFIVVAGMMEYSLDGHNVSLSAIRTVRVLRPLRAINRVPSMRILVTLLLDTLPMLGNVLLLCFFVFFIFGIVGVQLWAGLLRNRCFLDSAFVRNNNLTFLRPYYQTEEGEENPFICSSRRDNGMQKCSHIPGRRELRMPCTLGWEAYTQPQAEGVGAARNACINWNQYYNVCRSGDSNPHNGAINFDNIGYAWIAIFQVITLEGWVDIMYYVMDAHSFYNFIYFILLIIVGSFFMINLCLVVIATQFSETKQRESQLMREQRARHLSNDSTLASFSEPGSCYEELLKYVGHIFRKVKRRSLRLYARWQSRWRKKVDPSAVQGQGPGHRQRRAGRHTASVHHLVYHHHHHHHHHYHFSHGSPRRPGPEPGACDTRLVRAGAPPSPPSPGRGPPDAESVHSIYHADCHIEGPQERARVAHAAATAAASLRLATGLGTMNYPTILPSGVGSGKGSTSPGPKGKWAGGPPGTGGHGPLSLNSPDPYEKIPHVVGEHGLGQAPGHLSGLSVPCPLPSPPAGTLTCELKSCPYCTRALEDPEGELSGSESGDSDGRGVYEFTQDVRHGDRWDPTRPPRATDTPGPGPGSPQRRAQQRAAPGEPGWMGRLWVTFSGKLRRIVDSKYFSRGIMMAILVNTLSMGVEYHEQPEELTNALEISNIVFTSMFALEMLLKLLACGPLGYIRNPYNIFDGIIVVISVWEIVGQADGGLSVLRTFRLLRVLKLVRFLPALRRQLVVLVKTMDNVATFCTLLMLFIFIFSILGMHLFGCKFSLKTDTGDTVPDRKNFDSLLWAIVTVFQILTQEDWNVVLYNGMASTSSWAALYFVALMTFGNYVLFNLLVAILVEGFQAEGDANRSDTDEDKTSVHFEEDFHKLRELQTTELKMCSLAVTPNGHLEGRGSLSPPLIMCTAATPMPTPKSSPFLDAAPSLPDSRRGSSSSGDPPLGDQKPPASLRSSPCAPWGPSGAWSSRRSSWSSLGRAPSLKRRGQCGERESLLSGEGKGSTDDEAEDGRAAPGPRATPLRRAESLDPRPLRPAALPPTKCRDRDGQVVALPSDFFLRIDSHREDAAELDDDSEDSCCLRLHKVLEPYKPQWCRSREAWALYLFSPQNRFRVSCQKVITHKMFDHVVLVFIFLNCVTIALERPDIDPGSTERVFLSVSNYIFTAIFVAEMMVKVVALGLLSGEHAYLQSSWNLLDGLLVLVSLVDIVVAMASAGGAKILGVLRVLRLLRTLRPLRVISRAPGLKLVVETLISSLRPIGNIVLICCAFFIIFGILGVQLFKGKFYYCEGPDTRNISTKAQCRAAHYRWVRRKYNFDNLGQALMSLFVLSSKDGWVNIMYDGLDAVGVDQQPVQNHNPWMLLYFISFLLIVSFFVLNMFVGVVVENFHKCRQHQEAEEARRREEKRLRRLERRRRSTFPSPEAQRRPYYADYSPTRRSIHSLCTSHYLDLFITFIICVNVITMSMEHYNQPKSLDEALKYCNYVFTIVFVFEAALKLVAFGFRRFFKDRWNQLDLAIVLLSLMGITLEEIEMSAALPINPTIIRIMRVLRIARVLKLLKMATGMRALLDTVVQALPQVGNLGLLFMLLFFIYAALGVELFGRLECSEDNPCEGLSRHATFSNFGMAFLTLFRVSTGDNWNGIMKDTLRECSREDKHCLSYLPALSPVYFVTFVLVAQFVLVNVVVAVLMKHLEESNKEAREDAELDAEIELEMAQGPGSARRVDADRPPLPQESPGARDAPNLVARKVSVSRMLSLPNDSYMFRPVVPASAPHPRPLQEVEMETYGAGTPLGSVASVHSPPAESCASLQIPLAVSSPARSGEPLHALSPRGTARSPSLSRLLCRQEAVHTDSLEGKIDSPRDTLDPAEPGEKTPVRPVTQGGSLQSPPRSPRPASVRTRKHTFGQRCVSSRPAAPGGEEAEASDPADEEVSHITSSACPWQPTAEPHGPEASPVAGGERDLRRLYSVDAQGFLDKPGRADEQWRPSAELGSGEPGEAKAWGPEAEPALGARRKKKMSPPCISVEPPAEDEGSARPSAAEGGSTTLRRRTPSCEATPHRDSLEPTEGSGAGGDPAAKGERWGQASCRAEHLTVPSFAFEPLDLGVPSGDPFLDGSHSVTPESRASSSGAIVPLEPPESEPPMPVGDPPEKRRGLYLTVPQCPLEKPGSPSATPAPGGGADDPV
Chain of Luciferin 4-monooxygenase (P08659 whole entry): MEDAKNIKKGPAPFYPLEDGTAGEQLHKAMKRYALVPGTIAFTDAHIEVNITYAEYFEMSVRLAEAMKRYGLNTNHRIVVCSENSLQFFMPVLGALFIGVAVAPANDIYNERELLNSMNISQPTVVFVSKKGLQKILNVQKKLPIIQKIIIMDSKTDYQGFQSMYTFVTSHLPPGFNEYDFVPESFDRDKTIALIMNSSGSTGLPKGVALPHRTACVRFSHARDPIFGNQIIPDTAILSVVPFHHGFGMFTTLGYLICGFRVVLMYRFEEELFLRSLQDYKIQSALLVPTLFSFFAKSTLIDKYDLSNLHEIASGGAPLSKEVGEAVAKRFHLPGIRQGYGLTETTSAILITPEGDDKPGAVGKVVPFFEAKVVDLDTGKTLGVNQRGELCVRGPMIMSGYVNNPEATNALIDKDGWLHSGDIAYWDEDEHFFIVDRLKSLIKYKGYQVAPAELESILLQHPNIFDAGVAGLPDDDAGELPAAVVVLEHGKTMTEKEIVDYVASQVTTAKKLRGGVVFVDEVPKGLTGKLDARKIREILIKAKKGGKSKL
Chain of FAD-linked sulfhydryl oxidase ALR (P55789 whole entry): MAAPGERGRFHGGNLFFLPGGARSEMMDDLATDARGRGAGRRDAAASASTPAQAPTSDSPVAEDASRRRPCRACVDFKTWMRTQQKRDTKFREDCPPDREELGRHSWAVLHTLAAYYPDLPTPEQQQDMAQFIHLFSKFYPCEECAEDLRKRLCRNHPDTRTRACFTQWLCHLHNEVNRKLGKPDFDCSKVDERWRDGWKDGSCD
Chain of Cytochrome P450 2C9 (P11712 whole entry): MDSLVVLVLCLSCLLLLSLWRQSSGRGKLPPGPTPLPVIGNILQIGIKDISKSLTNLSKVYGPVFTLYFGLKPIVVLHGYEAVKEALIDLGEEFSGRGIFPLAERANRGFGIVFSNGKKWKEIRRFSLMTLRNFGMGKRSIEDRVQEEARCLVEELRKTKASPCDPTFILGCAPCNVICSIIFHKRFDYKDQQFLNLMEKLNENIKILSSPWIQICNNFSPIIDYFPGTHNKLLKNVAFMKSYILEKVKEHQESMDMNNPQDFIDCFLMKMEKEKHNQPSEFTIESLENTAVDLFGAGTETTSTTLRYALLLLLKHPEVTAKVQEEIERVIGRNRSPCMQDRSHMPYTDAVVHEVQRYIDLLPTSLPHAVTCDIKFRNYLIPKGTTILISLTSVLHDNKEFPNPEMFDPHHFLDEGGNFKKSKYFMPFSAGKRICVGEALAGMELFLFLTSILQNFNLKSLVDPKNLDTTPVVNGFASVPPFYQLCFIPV
Chain of Cytochrome P450 2D6 (P10635 whole entry): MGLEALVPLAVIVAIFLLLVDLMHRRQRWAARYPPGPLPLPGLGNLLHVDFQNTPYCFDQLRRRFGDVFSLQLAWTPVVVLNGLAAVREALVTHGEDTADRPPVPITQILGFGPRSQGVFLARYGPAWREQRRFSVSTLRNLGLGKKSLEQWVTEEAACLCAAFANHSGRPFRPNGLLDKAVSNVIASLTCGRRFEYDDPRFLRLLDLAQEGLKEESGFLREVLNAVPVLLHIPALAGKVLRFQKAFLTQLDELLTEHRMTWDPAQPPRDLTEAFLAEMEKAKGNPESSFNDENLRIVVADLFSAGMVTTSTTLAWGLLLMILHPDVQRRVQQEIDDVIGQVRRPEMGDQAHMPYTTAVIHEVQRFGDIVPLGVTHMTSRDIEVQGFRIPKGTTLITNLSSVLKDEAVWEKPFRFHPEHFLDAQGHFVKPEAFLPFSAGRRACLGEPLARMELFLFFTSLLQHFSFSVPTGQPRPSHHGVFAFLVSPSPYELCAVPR

Turning to `COc1ccc2c(c1)N(C(=O)CSc1n[nH]c(C)n1)C(C)(C)C=C2C`, the EC50 in experiment [1] and in experiment [2] was > 112 µM (not active) in each case.
In the case of `O=C(CC(Nc1ccccc1Cl)C(=O)O)c1ccccc1` (stereo not given), the AC50 in experiment [3] is 13 µM (active).
In the case of `CCCOC(=O)c1ccc(NC(=O)c2ccoc2C)cc1`, the EC50 is 4.18 µM (active) in experiment [1] and 5.2 µM (active) in experiment [2].
Turning to `CC1CN(C(=O)N2c3ccccc3Sc3ccccc32)C(C)CC1=O` (stereo not given), the EC50 in experiment [4] is 8.31 µM (active).
On to `Nc1ccc(-c2cc(N)n(-c3ccccc3)n2)cc1`, for which, in [3], the AC50 is 0.8 µM (active).
On to `CC1(c2ccc3noc(-c4ccc(F)cc4)c3c2)OCCO1`, for which the figures for the IC50 in experiment [5] and in experiment [6] were 19.3 µM (active) and > 66 µM (inactive), respectively.
Turning to `COc1ccc(-c2nn(-c3ccccc3)cc2C(=O)O)cc1OC`, the EC50 in experiment [1] and in experiment [2] was > 112 µM (not active) each time.
As to `Cc1ccc(-c2noc(CN(C(=O)CCCCCN3C(=O)c4ccccc4C3=O)C(C)C)n2)cc1`, in experiment [7], the IC50 is on record as 5.93 µM (not active). Besides, the EC50 in [4] is 7.53 µM (active).
In the case of `O=C1/C(=C\c2ccc([N+](=O)[O-])cc2)CCc2ccccc21`, the EC50 in [1] was 8.13 µM (active); in experiment [2], 2.53 µM (active).
Taken in the same sequence, the figures for `Cc1ccc(NC(=O)N2CCC(c3ccccc3)C2)cc1C` (stereo not given) were > 112 µM (not active) and > 112 µM (not active).
In the case of `CCOc1ccc(-c2cc(CCCC(=O)NCCC(C)C)no2)cc1`, the IC50 in “cells” is 10.6 µM (active). For the same compound, in [8], the CC50 was > 40 µM (active).
Regarding `[O-][S+](Cc1cc(Oc2ccccc2)nc(-c2ccccc2)n1)c1ccccc1` (stereo not given), the AC50 at Cytochrome P450 3A4 is 28.2 µM (inconclusive); on Cytochrome P450 2D6, 1.26 µM (inconclusive); on Cytochrome P450 2C9, 3.98 µM (inconclusive). In addition, the EC50 in experiment [4] was 7.24 µM (active).
Regarding `Cn1cccc1Cc1nnc(SCC(=O)Nc2ccc(F)cc2)n1-c1ccc(F)cc1`, the EC50 in experiment [4] is 2.17 µM (active).
On the same count and under the same terms, with `CCS(=O)(=O)n1nc(NCc2cccc(OC)c2)nc1NCc1cccc(OC)c1` the figure was 8.18 µM (active).
Regarding `COc1ccc(NC(=S)N=Nc2c(O)[nH]c3ccccc23)cc1`, the IC50 in [5] and in experiment [6] was > 66 µM (inactive) in each case. Further, the EC50 in the experiment with Streptococcus is 14.1 µM (active); in experiment [9], 2.34 µM (active); on Streptokinase A, > 150 µM (not active).
As for `Cc1cc(C)c(S(=O)(=O)Nc2ccc(N(C)C)cc2)c(C)c1-n1cnnn1`, in [3], the AC50 is 0.197 µM (active). Also, the EC50 in [10] is reported as > 195 µM (not active). In addition, the IC50 in experiment [11] was 41.6 µM (active).
As to `O=c1[nH]c2cc3c(cc2cc1CN(CCCO)Cc1nnnn1Cc1ccc(F)cc1)OCO3`, the IC50 in [5] and in experiment [6] was > 66 µM (inactive) each time. Besides, the AC50 on Cytochrome P450 2D6 is 12.6 µM (inconclusive); at Cytochrome P450 2C9, 11.2 µM (inconclusive).
`CNc1nnc(CSc2nc3ccccc3s2)s1`: in experiment [3], the AC50 was 0.714 µM (active).
Take `O=C(Cn1cccc1)N1CCN(c2ccc(F)cc2)CC1`: the EC50 in [1] and in experiment [2] was > 112 µM (not active) throughout.
On to `COc1cccc(/C=C2\SC(=S)N(c3cccnc3)C2=O)c1OC`, for which the IC50 in experiment [5] and in experiment [6] was > 66 µM (inactive) each time.
For `Cn1cccc1Cc1nnc(SCC(=O)Nc2cccc(F)c2)n1-c1ccc(F)cc1`, the EC50 in experiment [4] is 3.35 µM (active).
For the compound `Cc1ccc(C(=O)N2CCN(c3ccccc3O)CC2)cc1S(=O)(=O)N1CCCCC1`, in [3], the AC50 was 9.33 µM (active).
For the compound `O=C(NC12CC3CC(CC(C3)C1)C2)c1cnccn1`, the IC50 in [5] was 38.7 µM (inactive); in [6] it was 43.3 µM (inactive).
Regarding `COc1c(/C=N/NC(=O)c2ccccc2O)c(CCN(C)C(C)=O)cc2c1OCO2`, the EC50 in experiment [1] and in [2] was > 112 µM (not active) in each case.
`O=C(O)CCCCCCC1C(=O)NC(=O)N1CCC(O)C1CCCCC1` (stereo not given): the results for the EC50 in [1] and in experiment [2] were > 112 µM (not active) and < 0.088 µM (active), respectively.
